Measured values published in patent US20260375233A1, “COMPOSITION FOR IMPROVING SKIN WRINKLES” (LG H&H CO., LTD., priority 2022, published 2026).

Assays:
Type in all cases: cell-based
[1] = tested on: Type IV collagen (COL4A1); assay: collagen mRNA synthesis promotion (qPCR), COL4A1 in human skin fibroblasts; conditions: 24 hours, mRNA by qPCR
Method: (§1) Human skin fibroblasts (NHDF-Neo-Human Dermal Fibroblasts, Neonatal, Lonza, CC-2509) were purchased from Lonza and then used. The purchased cells were cultured in an incubator (37 °C, 5% CO2) using media prepared by mixing Dulbecco Modified Eagle Medium (DMEM, Thermo Fisher Scientific) with 10% fetal bovine serum (FBS) and 1% antibiotics (penicillin streptomycin).
(§2) To analyze the efficacy of promoting collagen mRNA synthesis, human skin fibroblasts were dispensed on a 6-well plate at 1.5×10^5 cells/well and cultured in an incubator (37 °C, 5% CO2) for 24 hours. The substances were added to serum free media at an appropriate concentration/combination, and then the cells were again cultured for 24 hours under the same conditions. Thereafter, mRNA was obtained using an RNA-spin total RNA extraction kit (iNtRON Biotechnology, 17211), and cDNA was synthesized using a cDNA synthesis kit (PhileKorea Technology, ET21100). The expression level of each gene was analyzed by performing qPCR using the synthesized cDNA and taqman probes (assay ID: COL1A1-Hs00164004_m1, COL3A1-Hs00943809_m1, COL4A1-Hs00266237_m1, BNC2-Hs00417700_m1, EDAR-Hs00223468_m1).
as §2, with “COL1A1-Hs00164004_m1,” for “COL1A1-Hs00164004_m1, COL3A1-Hs00943809_m1,”, “sgpp2-Hs00544786_m1), ADIPOQ F primer (5′-[…]-3′), and ADIPOQ R primer (5′-[…]-3′).” for “BNC2-Hs00417700_m1, EDAR-Hs00223468_m1).”

[2] = tested on: SGPP2; assay: SGPP2 gene expression (qPCR) in human skin fibroblasts; conditions: 24 hours, FIG. 15
Method: as §1
as §2, with “COL1A1-Hs00164004_m1,” for “COL1A1-Hs00164004_m1, COL3A1-Hs00943809_m1,”, “sgpp2-Hs00544786_m1), ADIPOQ F primer (5′-[…]-3′), and ADIPOQ R primer (5′-[…]-3′).” for “BNC2-Hs00417700_m1, EDAR-Hs00223468_m1).”
For example, SGPP2 is a gene expressing an enzyme capable of dominantly acting in an inflammation status, and the overactivity of SGPP2 may be more vulnerable to inflammatory signals. […]

[3] = tested on: Type I collagen (COL1A1); assay: collagen mRNA synthesis promotion (qPCR), COL1A1 in human skin fibroblasts; conditions: 24 hours, mRNA by qPCR
Method: as §1, §2
as §2, with “COL1A1-Hs00164004_m1,” for “COL1A1-Hs00164004_m1, COL3A1-Hs00943809_m1,”, “sgpp2-Hs00544786_m1), ADIPOQ F primer (5′-[…]-3′), and ADIPOQ R primer (5′-[…]-3′).” for “BNC2-Hs00417700_m1, EDAR-Hs00223468_m1).”
as §2, with “PPARGC1B-Hs00993805_m1, SPATA5-Hs01047535_m1, EN1-Hs00154977_m1).” for “COL4A1-Hs00266237_m1, BNC2-Hs00417700_m1, EDAR-Hs00223468_m1).”

[4] = tested on: ADIPOQ; assay: ADIPOQ gene expression (qPCR) in human skin fibroblasts; conditions: 24 hours, FIG. 16
Method: as §1
as §2, with “COL1A1-Hs00164004_m1,” for “COL1A1-Hs00164004_m1, COL3A1-Hs00943809_m1,”, “sgpp2-Hs00544786_m1), ADIPOQ F primer (5′-[…]-3′), and ADIPOQ R primer (5′-[…]-3′).” for “BNC2-Hs00417700_m1, EDAR-Hs00223468_m1).”
As another example, ADIPOQ, a gene expressing adiponectin, is a substance primarily secreted in adipose tissue, and ADIPOQ in the skin is mainly known for anti-inflammatory effects thereof. […]

[5] = tested on: Type III collagen (COL3A1); assay: collagen mRNA synthesis promotion (qPCR), COL3A1 in human skin fibroblasts; conditions: 24 hours, mRNA by qPCR
Method: as §1
as §2, with “Thereafter, mRNA was obtained using an RNA-spin total RNA extraction kit (iNtRON Biotechnology, 17211), and cDNA was synthesized using a cDNA synthesis kit (PhileKorea Technology, ET21100).” left out
To analyze the efficacy of promoting collagen mRNA synthesis, human skin fibroblasts were dispensed on a 6-well plate at 1.5×10^5 cells/well and cultured in an incubator (37 °C, 5% CO2) for 24 hours. […] The expression level of each gene was analyzed by performing qPCR using the synthesized cDNA and taqman probes (assay ID: COL1A1-Hs00164004_m1, COL3A1-Hs00943809_m1, PPARGC1B-Hs00993805_m1, SPATA5-Hs01047535_m1, EN1-Hs00154977_m1).

[6] = tested on: BNC2; assay: BNC2 gene expression (qPCR) in human skin fibroblasts; conditions: 24 hours, FIG. 6
Method: as §1, §2
The degrees of fine wrinkle improvement by the substances of the present invention were investigated on the basis of the polymorphism markers showing correlations with the degree of skin fine wrinkles, obtained through Example 1. […]

[7] = tested on: EDAR; assay: EDAR gene expression (qPCR) in human skin fibroblasts; conditions: 24 hours, FIG. 7
Method: as §1
as §2, with “EDAR-Hs00223468_m1). […]” for “EDAR-Hs00223468_m1).”

[8] = tested on: SPATA5; assay: SPATA5 gene expression (qPCR) in human skin fibroblasts; conditions: 24 hours, Untreated = 1.00
Method: as §1
as §2, with “PPARGC1B-Hs00993805_m1, SPATA5-Hs01047535_m1, EN1-Hs00154977_m1).” for “COL4A1-Hs00266237_m1, BNC2-Hs00417700_m1, EDAR-Hs00223468_m1).”
Although the role of SPATA5 in the skin has not been studied, SPATA5 may play a role in mitochondrial function and ATP production. […]

[9] = tested on: PPARGC1B; assay: PPARGC1B gene expression (qPCR) in human skin fibroblasts; conditions: 24 hours, Non-treated = 1.00
Method: as §1
as §2, with “PPARGC1B-Hs00993805_m1, SPATA5-Hs01047535_m1, EN1-Hs00154977_m1).” for “COL4A1-Hs00266237_m1, BNC2-Hs00417700_m1, EDAR-Hs00223468_m1).”
For example, PPARGC1B, one of co-activators of peroxisome proliferator activated receptor-γ (PPARγ), has been known to be associated with melanogenesis in the skin. PPARGC1B has been reported to be involved in the wrinkle formation by mitochondrial dysfunction and the wrinkle reduction by mitochondrial function recovery (Cell Death & Disease volume 9, Article number: 735 (2018)). Therefore, the increased expression level of PPARGC1B serves to restore the function of mitochondria, which are cell energy producing organelles, thereby preventing and recovering from nasolabial wrinkles, which are deeply indented wrinkles accumulated over a relatively long time. That is, it can be seen that the increase in expression level of PPARGC1B by the treatment with the substances of the present invention is effective in wrinkle improvement.

Compound: fucoidan
- expression of Type IV collagen (COL4A1) [1]: promoted the expression
- expression of SGPP2 [2]: inhibited the expression

Compound: Cc1cc(O)c2c(c1)C(=O)c1cc(O)cc(O)c1C2=O [emodin]
- expression of Type I collagen (COL1A1) [3]: promoted the expression
- expression of Type IV collagen (COL4A1) [1]: promoted the expression
- expression of ADIPOQ [4]: increased the expression

Compound: O=C(CCc1ccc(O)cc1)c1c(O)cc(O)cc1O [phloretin]
- expression of Type I collagen (COL1A1) [3]: promoted the expression
- expression of Type III collagen (COL3A1) [5]: promoted the expression
- expression of Type IV collagen (COL4A1) [1]: promoted the expression
- expression of BNC2 [6]: inhibited the expression

Compound: C=C(C)[C@@H]1CC[C@]2(C)CC[C@@H]3[C@H](CC[C@H]4[C@@]3(C)CC[C@H]3C(C)(C)[C@@H](O)CC[C@]43C)[C@@H]12 [lupeol]
- expression of Type III collagen (COL3A1) [5]: promoted the expression
- expression of EDAR [7]: increased the expression

Compound: COc1cc(/C=C/C(=O)NCCc2c[nH]c3ccc(O)cc23)ccc1O [N-feruloylserotonin]
- expression of Type IV collagen (COL4A1) [1]: promoted the expression
- expression of SGPP2 [2]: inhibited the expression

Compound: NC[C@H]1CC[C@H](C(=O)O)CC1 [tranexamic acid, reference compound]
- expression of Type I collagen (COL1A1) [3]: promoted the expression
- Expression level of gene (SPATA5) [8]: 1.21

Compound: NC(=O)c1cccnc1 [niacinamide]
- expression of Type I collagen (COL1A1) [3]: promoted the expression
- Gene expression level (PPARGC1B) [9]: 1.52

Compound: Cc1ncc(CO)c(CO)c1O.Cl [pyridoxine HCl]
- expression of Type I collagen (COL1A1) [3]: promoted the expression
- Expression level of gene (SPATA5) [8]: 1.36

Compound: COc1ccc(-c2coc3cc(O)ccc3c2=O)cc1 [formononetin]
- expression of Type I collagen (COL1A1) [3]: promoted the expression
- expression of Type IV collagen (COL4A1) [1]: promoted the expression
- expression of ADIPOQ [4]: increased the expression

Compound: CC12CCC(CC1=O)C2(C)C (centres unmarked) [camphor]
- expression of Type I collagen (COL1A1) [3]: promoted the expression
- Gene expression level (PPARGC1B) [9]: 2.63

Compound: O=C[C@@H](O)[C@@H](O)[C@H](O)[C@H](O)COP(=O)([O-])[O-].[Na+].[Na+] [sodium mannose phosphate, D-mannose-6-phosphate sodium salt]
- expression of Type I collagen (COL1A1) [3]: promoted the expression
- Gene expression level (PPARGC1B) [9]: 1.53
